The values below come from ChEMBL document CHEMBL4321850, “Targeting Aryl hydrocarbon receptor for next-generation immunotherapies: Selective modulators (SAhRMs) versus rapidly metabolized ligands (RMAhRLs)” (Eur J Med Chem, 2020).

The target in assay [1] is T1, Aryl hydrocarbon receptor (Homo sapiens, UniProt P35869).
T1 sequence (P35869 whole entry): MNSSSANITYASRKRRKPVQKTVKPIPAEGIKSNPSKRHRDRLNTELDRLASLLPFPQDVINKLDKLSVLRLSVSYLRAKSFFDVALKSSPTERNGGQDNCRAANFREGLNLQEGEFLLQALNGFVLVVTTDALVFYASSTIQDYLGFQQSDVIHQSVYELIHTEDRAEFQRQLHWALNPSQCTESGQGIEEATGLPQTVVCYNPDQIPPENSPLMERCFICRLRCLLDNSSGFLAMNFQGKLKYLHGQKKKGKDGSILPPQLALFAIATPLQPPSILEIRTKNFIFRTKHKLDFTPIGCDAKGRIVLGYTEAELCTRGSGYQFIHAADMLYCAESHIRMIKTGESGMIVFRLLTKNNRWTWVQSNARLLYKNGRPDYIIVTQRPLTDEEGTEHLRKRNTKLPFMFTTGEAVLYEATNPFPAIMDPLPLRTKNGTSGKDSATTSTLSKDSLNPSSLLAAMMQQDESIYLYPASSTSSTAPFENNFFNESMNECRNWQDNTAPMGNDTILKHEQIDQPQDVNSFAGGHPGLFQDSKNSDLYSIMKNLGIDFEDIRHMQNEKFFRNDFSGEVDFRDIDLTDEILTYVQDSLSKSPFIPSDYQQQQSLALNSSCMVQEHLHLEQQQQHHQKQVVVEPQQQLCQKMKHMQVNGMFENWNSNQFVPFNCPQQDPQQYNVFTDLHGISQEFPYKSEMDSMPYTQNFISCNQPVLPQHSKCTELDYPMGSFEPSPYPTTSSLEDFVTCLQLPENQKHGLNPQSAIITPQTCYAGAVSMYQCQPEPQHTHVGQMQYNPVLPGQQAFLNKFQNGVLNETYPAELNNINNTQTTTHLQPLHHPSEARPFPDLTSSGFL
Put plainly: Inhibition of AhR (unknown origin).

The target of assay [2] is T1, Aryl hydrocarbon receptor. Put plainly: Binding affinity to AhR (unknown origin).
Assay [3] concerns the target T1, Aryl hydrocarbon receptor. Kind of assay: Binding affinity to AhR (unknown origin) relative to TCDD.
In assay [4] the target is T2, Aryl hydrocarbon receptor (Mus musculus, UniProt P30561).
T2 sequence (P30561 whole entry): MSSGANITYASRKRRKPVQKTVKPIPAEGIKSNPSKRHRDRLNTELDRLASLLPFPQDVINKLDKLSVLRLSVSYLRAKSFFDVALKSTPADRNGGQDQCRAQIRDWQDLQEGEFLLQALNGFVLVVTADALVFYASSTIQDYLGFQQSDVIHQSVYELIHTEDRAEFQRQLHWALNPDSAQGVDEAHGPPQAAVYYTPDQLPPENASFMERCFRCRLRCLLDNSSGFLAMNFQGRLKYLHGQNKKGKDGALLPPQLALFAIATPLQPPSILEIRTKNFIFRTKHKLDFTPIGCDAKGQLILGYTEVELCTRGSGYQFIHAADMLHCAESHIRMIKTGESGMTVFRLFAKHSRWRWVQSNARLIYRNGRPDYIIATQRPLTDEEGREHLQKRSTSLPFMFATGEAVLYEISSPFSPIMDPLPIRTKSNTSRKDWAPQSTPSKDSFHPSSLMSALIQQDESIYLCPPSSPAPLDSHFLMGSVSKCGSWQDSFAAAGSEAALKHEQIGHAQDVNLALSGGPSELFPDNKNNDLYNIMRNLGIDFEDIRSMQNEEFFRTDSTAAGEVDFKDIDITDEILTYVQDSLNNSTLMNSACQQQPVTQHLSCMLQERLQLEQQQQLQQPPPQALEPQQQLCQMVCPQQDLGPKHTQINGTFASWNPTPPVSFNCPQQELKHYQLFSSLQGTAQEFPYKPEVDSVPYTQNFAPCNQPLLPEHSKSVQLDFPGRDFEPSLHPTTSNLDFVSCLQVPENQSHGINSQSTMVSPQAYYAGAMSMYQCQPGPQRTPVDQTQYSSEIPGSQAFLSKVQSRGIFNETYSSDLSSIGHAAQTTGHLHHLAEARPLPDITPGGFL
Put plainly: Displacement of 2-azido-3-[125I]7,8-dibromodibenzo-pdioxin from C57BL/6J mouse liver AhR incubated for 20 mins by gamma counting based autoradiography.

The target of assay [5] is T2, Aryl hydrocarbon receptor. Put plainly: Displacement of [3H]TCDD from mouse AhR. A general note: In a radioligand displacement assay an active substance lowers the binding of a labelled ligand.
For assay [6], the target named is T1, Aryl hydrocarbon receptor. Kind of assay: Displacement of [3H] 3-MC from AhR (unknown origin).
For assay [7], the target named is T2, Aryl hydrocarbon receptor. Put plainly: Displacement of 2-azido-3-[125I]7,8-dibromodibenzo-pdioxin from C57BL/6J mouse liver AhR relative to TCDD.
Assay [8] deals with T2, Aryl hydrocarbon receptor. Put plainly: Displacement of 2-azido-3-[125I]7,8-dibromodibenzo-pdioxin from C57BL/6J mouse liver AhR.

One may read the Ki as the dissociation constant of the complex between target and ligand, obtained from inhibition or displacement. `Nc1ccccc1C(=O)C[C@H](N)C(=O)O` [L-KYNURENINE] returned a Ki in assay [1] of 21.6 µM. By Kd is commonly meant the concentration at which binding is half-saturated. As usually defined, the EC50 is the concentration needed to bring the measured effect to its halfway point. Read a high EC50 as weaker potency. As for `Cc1cc(Cl)cc2c1oc1cc(Cl)cc(Cl)c12`, binding in assay [2] was put at a Kd of 0.13 nM. This compound yielded an EC50 in assay [3] of 49 nM. As usually defined, the IC50 is the concentration that inhibits the measured activity by half. Low values mean inhibition by little substance, high ones a need for much substance. Take `COc1ccc(-c2cc(=O)c3ccc4ccccc4c3o2)cc1OC`: the IC50 in assay [4] was 21 nM.

As for `COC(=O)c1csc(C(=O)c2c[nH]c3ccccc23)n1`, in assay [5], the dissociation constant Kd worked out at 3 nM. In assay [6], `O=c1c2cccc3cccc(c32)c2nc3ccc(Cl)cc3n12` yielded an IC50 of 2.6 nM. This counts as single-digit nanomolar. The compound `c1ccc2c(Cc3c[nH]c4ccccc34)c[nH]c2c1` [ARUNDINE] showed an EC50 in assay [7] of 78 µM. The compound also gave a Kd in assay [8] of 90 nM.

As to `O=c1cc(-c2ccccc2)oc2c1ccc1ccccc12` [ALPHA-NAPHTHOFLAVONE], the IC50 in assay [4] stood at 25 nM.
